From US20130252831A1, “METHOD OF DIAGNOSING EARLY STAGE NON-SMALL CELL LUNG CANCER” (H. Lee Moffitt Cancer Center and Research Institute, Inc., priority 2010, published 2013)

Experiments:
A489 cell line = assay: MR score in cisplatin treated versus control cells, Almeida et al. dataset GSE6410; assay type: cell-based; conditions: p=0.08
From the text: The inventors have identified 10 published datasets describing drug sensitivity in cell lines. Three of them have been analyzed to show the potential of the MR signature for its association with drug sensitivity. […] A high MR score tends to be associated with low GI50 (sensitivity) in both drugs. In addition, in the Almeida et al.'s study (GSE6410), the MR score was lower in the cisplatin treated group than in the control group in A489 cell line (FIG. 20c).
Thousands and thousands of gene expression array data have been deposited at various public repositories, such as NCBI's Gene Expression Omnibus and EBI's ArrayExpress with more than 600,000 array data for each site (updated in October 2011; 100,000 more since January 2011). The broad and unrestricted microarray data have made in-silico validation of hypotheses accessible and feasible. For this invention, more than 1,000 microarray datasets have potential for performing in-silico validation (e.g., data related to the keyword “non-small cell lung cancer cell line” at GEO). First, appropriate datasets are identified for validation by reading the […] (at least abstract and experimental design). At this moment, more than 10 potential useful datasets have been identified. […] Molecular cancer therapeutics, 2008, 7(7); p. […]

EGFR-mutant NSCLC = conditions: randomized phase III trial (Zhou et al.); cited from earlier work

Structure (SMILES)	MR score in treated group versus control group (A489 cell line)	efficacy compared with platinum-based chemotherapy (EGFR-mutant NSCLC)
N.N.[Cl][Pt][Cl] [Cisplatin]	lower	–
C#Cc1cccc(Nc2ncnc3cc(OCCOC)c(OCCOC)cc23)c1 [erlotinib]	–	superior to platinum-based chemotherapy
